Measurements taken from US7655392B2, “Quenching methods for red blood cell inactivation process” (priority 2004, dated 2010).
Like-named read-outs stand apart in the source and are kept apart here.

What was measured:
[1] = test system: red blood cells; details: sample 6: 0.2 mM GSH+2 eq base, no PIC-1
Text: Methods for determining ATP, 2,3-DPG, glucose, hemoglobin, hemolysis, and potassium are available in the art. See for example, Davey et al., Transfusion, 32:525-528 (1992), the disclosure of which is incorporated herein. Methods for determining red blood cell function are also described in Greenwalt et al., Vox Sang, 58:94-99 (1990); Hogman et al., Vox Sang, 65:271-278 (1993); and Beutler et al., Blood, Vol. 59 (1982) the disclosures of which are incorporated herein by reference. For example, intracellular ATP and intracellular 2,3-DPG are measured using a Sigma ATP kit or 2,3-DPG kit (Sigma, St. Louis, Mo.). The ATP kit is used following Sigma procedure No. 366-UV, the disclosure of which is hereby incorporated by reference. […] The extracellular pH is measured by centrifuging the cells at 4° C. for 15 minutes at 12,000×g and removing the supernatant, for which the pH is measured using a standard pH meter at room temperature (e.g. Beckman, Epoxy Calomel electrode). For the intracellular pH, the remaining pellet is capped in the centrifuge tube and stored at about −80° C. for at least 2 hours. This is then lysed by the addition of deionized water. […] Measurements can be made shortly after treatment and as a function of post treatment storage, for example storage for up to 42 days.
Full units of red cell concentrates (Interstate Blood Bank, Inc., Memphis, Tenn.) were leukoreduced. A volume of 200 mL of this RCC (80% hematocrit) was mixed with 94 mL of Erythrosol or 100 mL of Adsol (Baxter Healthcare Corp., Deerfield, Ill.) as control (unit 1). A volume of 20 mL 8% dextrose was used to dissolve PIC-1 (mg) and acid glutathione (mg) and added to one unit to provide 0.2 mM PIC-1 and 2 mM glutathione (unit 2). […] For the glutathione, 1.2 mL of 10 N NaOH was added (2 equivalents). The PIC-1 was mixed with the unit, followed 1 minute later (unit 3) or 5 minutes later (unit 4) by glutathione. For unit 5, neutralized glutathione was mixed first, followed 10 minutes later by the PIC-1. […] All units were mixed by grasping the ends of the blood bag and mixing in a FIG. 8 motion 30 times. These were then incubated at room temperature for 20 hours total. A compound adsorption device (CAD), comprising a polymeric resin contained within a mesh pouch, was used for all but the control sample. This device is intended to remove residual PIC-1, PIC-1 breakdown products, and glutathione from the samples. Samples were incubated for 8 hours, then transferred to a second blood bag containing the CAD and incubated for an additional 12 hours. Following the room temperature incubation, samples were transferred to a refrigerator (4° C.) and stored up to 43 days. Aliquots were removed from each unit 12 hours and 20 hours post mixing, and every week thereafter. Aliquots were analyzed for total hemoglobin, pH, intracellular ATP, plasma hemoglobin, potassium, extracellular glucose and extracellular lactate.

[2] = test system: Serratia marcescens; format: cell-based; details: no PIC-1, 20 mM glutathione

## N[C@@H](CCC(=O)N[C@@H](CS)C(=O)NCC(=O)O)C(=O)O [glutathione, γ-L-glutamyl-L-cysteinyl-glycine]
[1]; 16B day 0
  Percent Hemolysis: 0.15%
[1]; 16B day 0.5
  Percent Hemolysis: 0.19%
[1]; 16B day 0.8
  Percent Hemolysis: 0.51%
[1]; 16B day 7
  Percent Hemolysis: 0.58%
[1]; 16B day 14
  Percent Hemolysis: 0.61%
[1]; 16B day 22
  Percent Hemolysis: 0.60%
[1]; 16B day 28
  Percent Hemolysis: 0.71%
[1]; 16B day 35
  Percent Hemolysis: 0.70%
[1]; 16B day 43
  Percent Hemolysis: 0.75%
[2]; 0 eq base
  Log S. marcescens reduction: 0.02 Log
  Log S. marcescens titer: 7.0 Log
[2]; 2 eq base
  Log S. marcescens reduction: 0.31 Log
  Log S. marcescens titer: 7.4 Log
